From patent US5545672A, “Treatment of insulin resistance and type 2 diabetes mellitus with a thiol protease inhibitor” (The University of Texas System, priority 1994, dated 1996)
Entries after “also recorded” stand apart in the source; their conditions may differ. Where two headings read alike, the source gives them in different places.

Experiments:
3T3-L1 adipocytes = assay: Insulin resistance in adipocytes: 14C-glucose incorporation into cellular lipid (lipogenesis); type: cell-based; conditions: for insulin resistance (insulin stimulation of lipogenesis after preincubation): 3T3-L1 adipocytes, 9 h preincubation with insulin 1.7 μM alone or with E-64 100 μM; for cpm INCORPORATED: 9 h pretreatment (insulin 1.7 μM alone, or insulin 1.7 μM + E-64 100 μM); for FOLD STIMULATION: pretreatment as above
Description: Intact monolayers of 3T3-L1 adipocytes were preincubated in the absence of insulin (control) or for nine hours in the presence of 1.7 μM insulin to induce cellular insulin resistance. […] Following preincubation, the treated monolayers were extensively washed to remove any insulin present from the preincubation period. The monolayers were then incubated with insulin, 0, 0.05, or 10 nM for 30 minutes, followed by the addition of 14C-glucose at a final concentration of 25 mM. Incorporation of the radiolabeled glucose proceeded for 30 minutes, after which the cells were washed, lysed, and the cellular lipids extracted into chloroform:methanol (2:1). The amount of radiolabel incorporated into the cellular lipid was then quantified by liquid scintillation counting, and the results are shown in Table 2. This assay procedure is described in Tarlow et al., J. Cell Biol., 73:332-353, 1977.

[1] = test system: insulin receptor β subunit; assay: Insulin-induced proteolysis of insulin receptor β subunit, quantitative immunoblot of membranes and cytosol; type: cell-based; conditions: 3T3-C2 fibroblasts, 4 h; for β' FRAGMENT % IN CYTOSOL: normalized to maximum β' after eight hours of insulin
Description: Cell monolayers were scraped into 10 mM triethanolamine, 10 mM acetic acid, 1 mM EDTA, pH 7.4. The cells were disrupted in a Dounce homogenizer and subjected to centrifugation at 265,000×g, 70 min. at 4° C. The pellet was retained as cellular membranes and the supernatant was collected as the cytosolic fraction.
The cellular membranes were detergent-extracted and the extracts were subjected to SDS polyacrylamide gel electrophoresis on a 7.5% gel to resolve the intact β subunit (approximate mass 92 kDa).
Transfer of the cellular proteins from the 7.5% acrylamide gel to nitrocellulose was conducted at 18 V for 18 h, and the intact β subunit and β' fragment were detected as previously described (Knutson and Buck, Arch. Biochem. Biophys., 285:197-204, 1991). Briefly, following transfer, the nitrocellulose was blocked by incubation for 1 h with blot buffer (50 mM Tris, 0.2M NaCl, pH 8) containing 4% non-fat dry milk. Following blocking, the nitrocellulose was incubated with an anti-peptide antibody which specifically recognizes the carboxy-terminal 16 amino acid residues of the insulin receptor β subunit. This domain is contained in both the intact β subunit and the β' fragment. This antibody has been fully characterized and affinity purified (Knutson and Buck, ibid.). The antibody concentration was 5 μg/ml in blot buffer containing 1% non-fat dry milk, and the incubation was allowed to proceed for 2 h at room temperature. The unbound antibody was then removed from the nitrocellulose by 3 washes with blot buffer containing 1% non-fat dry milk and 0.05% Tween-20. The nitrocellulose was then incubated with ^125 I-protein A, 0.1 μCi/ml, with the blot buffer containing 1% non-fat dry milk, for 1 h at room temperature. Following a final 5 washes of the nitrocellulose with blot buffer-1% dry milk-0.05% Tween-20, the nitrocellulose was exposed to X-ray film. Autoradiographic intensities were quantitated by densitometric scanning.
Cytosolic β' fragment (approximate mass 61 kDa) was isolated by subjecting the […] to high speed centrifugation, removing the supernatant, subjecting the supernatant to SDS polyacrylamide gel electrophoresis on a 7.5% gel, transferring the cytosolic proteins to nitrocellulose, and detecting the cytosolic β' fragment by quantitative immunoblot (Western blot) analysis as described above. The β' fragment data was normalized to the maximum level of β' fragment detected after eight hours of insulin treatment. The above-described procedure is as described in Knutson, V. P., J. Biol. Chem., 266:15656-15662 (1991).

[2] = test system: insulin receptor β subunit; conditions: cultured cells chronically treated with high insulin; Knutson, J. Biol. Chem. 266, 1991; cited from earlier work
lean Zucker rats = conditions: 2.5 mg/kg I.P. every 24 h, data not shown
Text: (§1) The injection protocol was initiated when the rats were 14 weeks old, a time when their insulin resistant state was fully manifest. Blood was drawn from the animals at intervals before the beginning of the injection schedule, and at at least one week intervals after initiating the injections. On the first day of the protocol, the fatty rats weighed an average of 416 grams.

Zucker fatty rats = conditions: for SERUM TG: Zucker fatty rats
Text: as §1

[3] = agent alone (insulin 1.7 μM; leupeptin 10 μg/ml; E-64 100 μM), control 100 ± 13

Molecule | insulin resistance (insulin stimulation of lipogenesis after preincubation) (3T3-L1 adipocytes) | cpm INCORPORATED (3T3-L1 adipocytes; then insulin 0 nM) [cpm] | cpm INCORPORATED (3T3-L1 adipocytes; then insulin 0.05 nM) [cpm] | cpm INCORPORATED (3T3-L1 adipocytes; then insulin 10 nM) [cpm] | FOLD STIMULATION (3T3-L1 adipocytes; insulin 0 nM (baseline)) [fold] | FOLD STIMULATION (3T3-L1 adipocytes; insulin 0.05 nM) [fold] | FOLD STIMULATION (3T3-L1 adipocytes; insulin 10 nM) [fold] | β SUBUNIT % IN MEMBRANES [1, 3] [%] | β' FRAGMENT % IN CYTOSOL ([1]; agent alone, control 8 ± 5) | β' FRAGMENT % IN CYTOSOL ([1]; inhibitor + insulin 1.7 μM) | other results
insulin | no subsequent stimulation of lipogenesis | 1600 | 1900 | 1800 | 1 | 1.2 | 1.1 | 80 ± 7 | 62 ± 6% | – | β SUBUNIT % IN MEMBRANES ([1]; agent alone (insulin 1.7 μM; leupeptin 10 μg/ml; E-64 100 μM), control 100 ± 13, listed as insulin): decreased; β' FRAGMENT % IN CYTOSOL ([1]; agent alone, control 8 ± 5, listed as insulin): increased
CC(=O)N[C@@H](CC(C)C)C(=O)N[C@@H](CC(C)C)C(=O)N[C@H](C=O)CCCNC(=N)N [Leupeptin, leupeptin] | – | – | – | – | – | – | – | 97 ± 7 | Trace | Not detectable | β SUBUNIT % IN MEMBRANES ([1]; inhibitor + insulin 1.7 μM (leupeptin 10 μg/ml; E-64 100 μM)): 120 ± 17%; β SUBUNIT % IN MEMBRANES ([1]; inhibitor + insulin 1.7 μM (leupeptin 10 μg/ml; E-64 100 μM), listed as leupeptin): prevented insulin-induced loss; β' FRAGMENT % IN CYTOSOL ([1]; inhibitor + insulin 1.7 μM, listed as leupeptin): prevented generation
CC(C)C[C@H](NC(=O)[C@H]1O[C@@H]1C(=O)O)C(=O)NCCCCN=C(N)N [E-64, L-transepoxysuccinyl-leucylamido (4-guanidino) butane] | ameliorated | 600 | 1100 | 3100 | 1 | 1.8 | 5.2 | 143 ± 7 | Trace | Not detectable; also recorded: non-detectable | production of the insulin receptor fragment β' [2]: inhibited; effect on triglyceride levels in lean rats (lean Zucker rats): no effect; effect on the increase in triglyceride levels found in control Zucker fatty rats (Zucker fatty rats; 2.5 mg/kg I.P. every 24 h): prevented the increase; effect on insulin resistant state in Zucker fatty rats (Zucker fatty rats; 2.5 mg/kg I.P. every 24 h, 90 days): reduced but did not reverse; SERUM TG (Zucker fatty rats; 2.5 mg/kg I.P. every 24 h, day 28, n = 3): 798 ± 269 mg/dL; SERUM TG (Zucker fatty rats; 2.5 mg/kg I.P. every 24 h, day 56, n = 3): 1045 ± 443 mg/dL; SERUM TG (Zucker fatty rats; 2.5 mg/kg I.P. every 24 h, day 89, n = 3): 1093 ± 301 mg/dL; SERUM TG (Zucker fatty rats; day -4 of protocol (before injections), n = 3): 1009 ± 157 mg/dL
